Measurements published in US20260146035A1, “FUSED BICYCLIC COMPOUNDS AND THEIR USE AS MER AND AXL INHIBITORS” (DONG-A ST CO., LTD., priority 2022, published 2026).

Tests used:
human MER (528-end) = target: T1, human MER (528-end) (Homo sapiens, UniProt Q12866); assay: HTRF kinase activity biochemical assay, MER; conditions: 10 μM ATP, 30 minutes pre-incubation; read-out: HTRF MERTK IC50
T1 construct: human MER (528-end); purchased Camnabio, Japan
T1 sequence (Q12866 528-999 limits assumed): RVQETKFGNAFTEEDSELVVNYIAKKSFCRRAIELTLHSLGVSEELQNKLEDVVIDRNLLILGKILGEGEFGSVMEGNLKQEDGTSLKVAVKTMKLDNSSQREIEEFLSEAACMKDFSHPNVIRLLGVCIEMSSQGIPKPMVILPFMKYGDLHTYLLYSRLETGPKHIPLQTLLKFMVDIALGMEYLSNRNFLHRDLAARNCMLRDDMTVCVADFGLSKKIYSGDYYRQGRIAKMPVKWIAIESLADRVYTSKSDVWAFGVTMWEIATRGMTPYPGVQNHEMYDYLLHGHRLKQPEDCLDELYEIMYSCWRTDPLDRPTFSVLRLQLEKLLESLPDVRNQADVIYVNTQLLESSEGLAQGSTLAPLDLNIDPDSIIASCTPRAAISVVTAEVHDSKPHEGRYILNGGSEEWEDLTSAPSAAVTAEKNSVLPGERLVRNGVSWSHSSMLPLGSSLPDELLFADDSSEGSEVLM
Protocol: (§1) For the SAR (structure-activity relationship) and compound screening, HTRF (Homogeneous Time Resolved Fluorescence) kinase activity assay was employed for all MER, AXL and TYRO3 kinases using Cisbio HTRF® KinEASE™-TK kit (Cisbio, USA). The kit included biotin-labeled TK substrate, streptavidin-XL665, Eu3+-cryptate-labeled TK antibody and HTRF® Detection buffer. There are two main steps in the kinase assay: kinase reaction and detection of phosphorylated substrate. The reaction was carried out in white low volume 384-well plate (Corning, USA) with 25 nL compound in dimethyl sulfoxide in each well. […] After 1 hour incubation at room temperature, the fluorescence intensity was measured with Envision[…] plate reader (PerkinElmer, USA). Upon excitation at 340 nm by UV, the energy from Eu3+ donor of the antibody is transferred to the FRET acceptor XL665, and […] emits light at 665 nm.

human AXL (473-end) = target: T2, human AXL (473-end) (Homo sapiens, UniProt P30530); assay: HTRF kinase activity biochemical assay, AXL; conditions: 10 μM ATP, 30 minutes pre-incubation
T2 construct: human AXL (473-end); purchased SignalChem, Canada
T2 sequence (P30530 473-894 limits assumed): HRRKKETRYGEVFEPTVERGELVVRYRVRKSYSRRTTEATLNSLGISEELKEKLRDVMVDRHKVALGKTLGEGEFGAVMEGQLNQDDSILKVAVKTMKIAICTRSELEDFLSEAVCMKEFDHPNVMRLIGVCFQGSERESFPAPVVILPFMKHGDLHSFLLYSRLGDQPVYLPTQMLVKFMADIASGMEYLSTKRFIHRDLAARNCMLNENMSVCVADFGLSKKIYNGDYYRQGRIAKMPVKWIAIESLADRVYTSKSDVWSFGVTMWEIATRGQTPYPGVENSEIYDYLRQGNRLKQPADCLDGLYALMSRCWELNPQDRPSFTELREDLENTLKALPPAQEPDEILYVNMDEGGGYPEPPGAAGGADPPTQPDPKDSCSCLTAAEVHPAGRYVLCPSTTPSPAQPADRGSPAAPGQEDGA
Protocol: as §1

human TYRO3 (455-end) = target: T3, human TYRO3 (455-end) (Homo sapiens, UniProt Q06418); assay: HTRF kinase activity biochemical assay, TYRO3; conditions: 10 μM ATP, 30 minutes pre-incubation; read-out: HTRF TYRO IC50
T3 construct: TYRO3 (455-end); purchased SignalChem, Canada
T3 sequence (Q06418 455-890 limits assumed): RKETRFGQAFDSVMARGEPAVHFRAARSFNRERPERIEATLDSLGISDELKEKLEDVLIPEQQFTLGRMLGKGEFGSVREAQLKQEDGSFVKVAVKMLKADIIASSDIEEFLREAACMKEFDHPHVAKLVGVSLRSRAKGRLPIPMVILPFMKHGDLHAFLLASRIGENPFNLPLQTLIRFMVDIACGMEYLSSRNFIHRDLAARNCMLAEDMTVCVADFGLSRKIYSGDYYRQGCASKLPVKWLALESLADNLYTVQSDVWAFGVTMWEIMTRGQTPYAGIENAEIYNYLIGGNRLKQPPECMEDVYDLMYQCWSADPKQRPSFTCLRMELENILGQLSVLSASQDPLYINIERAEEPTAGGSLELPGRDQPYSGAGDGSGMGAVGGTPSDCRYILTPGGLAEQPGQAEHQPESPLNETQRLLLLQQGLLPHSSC
Protocol: as §1

IC50 (human MER (528-end)) [nM] | IC50 (human AXL (473-end)) [nM] | IC50 (human TYRO3 (455-end)) [nM] | Compound
10 to 100 | 10 to 100 | > 1000 | CN1CC(C)(C)c2cc(-c3ccc(CO[C@H]4CCC[C@@H]4NC(=O)c4cc(-c5cnn(C)c5)cnc4N)cc3)ccc21 [Example 17, 2-amino-5-(1-methyl-1H-pyrazol-4-yl)-N-[(1S,2S)-2-{[4-(1,3,3-trimethyl-2,3-dihydro-1H-indol-5-yl)phenyl]methoxy}cyclopentyl]pyridine-3-carboxamide]
< 10 | 10 to 100 | 100 to 1000 | Cn1cc(-c2cnc(N)c(C(=O)N[C@H]3COC[C@@H]3OCc3ccc(-c4ccc5c(c4)CCC5N4CCN(CCO)CC4)cc3)c2)cn1 (stereo partly drawn) [Example 18, 2-amino-N-{(3S,4R)-4-[(4-{1-[4-(2-hydroxyethyl)piperazin-1-yl]-2,3-dihydro-1H-inden-5-yl}phenyl)methoxy]oxolan-3-yl}-5-(1-methyl-1H-pyrazol-4-yl)pyridine-3-carboxamide]
< 10 | < 10 | 100 to 1000 | Nc1ncc(-c2ccc(F)nc2)cc1C(=O)N[C@H]1CCC[C@@H]1OCc1ccc(-c2ccc3c(c2)CCC3N2CCN(CCO)CC2)cc1 (stereo partly drawn) [Example 19, 6-amino-6′-fluoro-N-{(1S,2S)-2-[(4-{1-[4-(2-hydroxyethyl)piperazin-1-yl]-2,3-dihydro-1H-inden-5-yl}phenyl)methoxy]cyclopentyl}[3,3′-bipyridine]-5-carboxamide]
< 10 | 10 to 100 | > 1000 | Nc1ncc(-c2ccc(F)nc2)cc1C(=O)N[C@H]1COC[C@@H]1OCc1ccc(-c2ccc3c(c2)CCC3N2CCN(CCO)CC2)cc1 (stereo partly drawn) [Example 20, 6-amino-6′-fluoro-N-{(3S,4R)-4-[(4-{1-[4-(2-hydroxyethyl)piperazin-1-yl]-2,3-dihydro-1H-inden-5-yl}phenyl)methoxy]oxolan-3-yl}[3,3′-bipyridine]-5-carboxamide]
< 10 | 10 to 100 | > 1000 | Nc1ncc(C(F)(F)F)cc1C(=O)N[C@H]1CCC[C@@H]1OCc1ccc(-c2ccc3c(ccn3C3CCN(CCO)CC3)c2)cc1 [Example 21, 2-amino-N-{(1S,2S)-2-[(4-{1-[1-(2-hydroxyethyl)piperidin-4-yl]-1H-indol-5-yl}phenyl)methoxy]cyclopentyl}-5-(trifluoromethyl)pyridine-3-carboxamide]
< 10 | 10 to 100 | 100 to 1000 | Nc1ncc(-c2ccc(F)nc2)cc1C(=O)N[C@H]1CCC[C@@H]1OCc1ccc(-c2ccc3c(ccn3C3CCN(CCO)CC3)c2)cc1 [Example 22, 6-amino-6′-fluoro-N-{(1S,2S)-2-[(4-{1-[1-(2-hydroxyethyl)piperidin-4-yl]-1H-indol-5-yl}phenyl)methoxy]cyclopentyl}[3,3′-bipyridine]-5-carboxamide]
< 10 | < 10 | < 10 | Cn1cc(-c2cnc(N)c(C(=O)N[C@H]3CCC[C@@H]3OCc3ccc(-c4ccc5c(c4)C(C)(C)CN5C4CCN(CC(O)CO)CC4)cc3)c2)cn1 (stereo partly drawn) [Example 23, 2-amino-N-{(1S,2S)-2-[(4-{1-[1-(2,3-dihydroxypropyl)piperidin-4-yl]-3,3-dimethyl-2,3-dihydro-1H-indol-5-yl}phenyl)methoxy]cyclopentyl}-5-(1-methyl-1H-pyrazol-4-yl)pyridine-3-carboxamide]
10 to 100 | 100 to 1000 | > 1000 | Nc1ncc(C(F)(F)F)cc1C(=O)N[C@H]1COC[C@@H]1OCc1ccc(-c2ccc3c(ccn3C3CCN(CCO)CC3)c2)cc1 [Example 24, 2-amino-N-{(3S,4R)-4-[(4-{1-[1-(2-hydroxyethyl)piperidin-4-yl]-1H-indol-5-yl}phenyl)methoxy]oxolan-3-yl}-5-(trifluoromethyl)pyridine-3-carboxamide]
< 10 | 10 to 100 | > 1000 | Nc1ncc(-c2ccc(F)nc2)cc1C(=O)N[C@H]1COC[C@@H]1OCc1ccc(-c2ccc3c(ccn3C3CCN(CCO)CC3)c2)cc1 [Example 25, 6-amino-6′-fluoro-N-{(3S,4R)-4-[(4-{1-[1-(2-hydroxyethyl)piperidin-4-yl]-1H-indol-5-yl}phenyl)methoxy]oxolan-3-yl}[3,3′-bipyridine]-5-carboxamide]
< 10 | 10 to 100 | > 1000 | Cn1cc(-c2cnc(N)c(C(=O)N[C@H]3CCC[C@@H]3OCc3ccc(-c4ccc5c(C6CCN(CCO)CC6)cn(C)c5c4)cc3)c2)cn1 [Example 26, 2-amino-N-{(1S,2S)-2-[(4-{3-[1-(2-hydroxyethyl)piperidin-4-yl]-1-methyl-1H-indol-6-yl}phenyl)methoxy]cyclopentyl}-5-(1-methyl-1H-pyrazol-4-yl)pyridine-3-carboxamide]
< 10 | 10 to 100 | 100 to 1000 | Cn1cc(-c2cnc(N)c(C(=O)N[C@H]3CCC[C@@H]3OCc3ccc(-c4ccc5c(c4)C(C)(C)CN5C4CCN(CC(N)=O)CC4)cc3)c2)cn1 [Example 27, 2-amino-N-{(1S,2S)-2-[(4-{1-[1-(2-amino-2-oxoethyl)piperidin-4-yl]-3,3-dimethyl-2,3-dihydro-1H-indol-5-yl}phenyl)methoxy]cyclopentyl}-5-(1-methyl-1H-pyrazol-4-yl)pyridine-3-carboxamide]
10 to 100 | 10 to 100 | 10 to 100 | Cn1cc(-c2cnc(N)c(C(=O)N[C@H]3CCC[C@@H]3OCc3ccc(-c4ccc5c(c4)C4(CC4)CN5C4CCN(CCO)CC4)cc3)c2)cn1 [Example 28, 2-amino-N-{(1S,2S)-2-[(4-{1′-[1-(2-hydroxyethyl)piperidin-4-yl]-1′,2′-dihydrospiro[cyclopropane-1,3′-indol]-5′-yl}phenyl)methoxy]cyclopentyl}-5-(1-methyl-1H-pyrazol-4-yl)pyridine-3-carboxamide]
10 to 100 | 100 to 1000 | > 1000 | Cn1cc(-c2cnc(N)c(C(=O)N[C@H]3CCC[C@@H]3OCc3ccc(-c4cccc5cc[nH]c45)cc3)c2)cn1 [Example 29, 2-amino-N-[(1S,2S)-2-{[4-(1H-indol-7-yl)phenyl]methoxy}cyclopentyl]-5-(1-methyl-1H-pyrazol-4-yl)pyridine-3-carboxamide]
< 10 | < 10 | 10 to 100 | Cn1ccc(-c2cnc(N)c(C(=O)N[C@H]3CCC[C@@H]3OCc3ccc(-c4ccc5c(c4)C(C)(C)CN5C4CCN(CCO)CC4)cc3)c2)cc1=O [Example 30, 6-amino-N-{(1S,2S)-2-[(4-{1-[1-(2-hydroxyethyl)piperidin-4-yl]-3,3-dimethyl-2,3-dihydro-1H-indol-5-yl}phenyl)methoxy]cyclopentyl}-1′-methyl-2′-oxo-1′,2′-dihydro[3,4′-bipyridine]-5-carboxamide]
< 10 | < 10 | 10 to 100 | CC1(C)CN(C2CCN(CCO)CC2)c2ccc(-c3ccc(CO[C@H]4CCC[C@@H]4NC(=O)c4cc(-c5ccc(F)nc5)cnc4N)cc3)cc21 [Example 31, 6-amino-6′-fluoro-N-{(1S,2S)-2-[(4-{1-[1-(2-hydroxyethyl)piperidin-4-yl]-3,3-dimethyl-2,3-dihydro-1H-indol-5-yl}phenyl)methoxy]cyclopentyl}[3,3′-bipyridine]-5-carboxamide]
